Twelve compounds from patent US20020169101A1, “Treatment of sexual dysfunction” (priority 1999, published 2002) can be followed below.

One series addresses T1, human NMB receptor (BB1) (Homo sapiens, UniProt P28336).
T1 construct: expressed in transfected cells; membranes prepared from the cells
The series is described as follows: BB1 binding assay ([125I][Tyr4]bombesin displacement, CHO-K1 membranes). The following applies: Table 1, human NMB receptor binding affinity; Ki from IC50 by Cheng-Prusoff; read-out: NMB Ki. The method, boiled down: (§1)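 Competition against <0.1 nM [125I][Tyr4]bombesin, 60 min for the NMB receptor and 90 min for the GRP receptor, using homogenised membranes of human-receptor-expressing CHO-K1 cells in pH 7.4 Tris buffer. Bound label was filtered and gamma-counted, with 1 μM bombesin as nonspecific. Ki values came from IC50 via Cheng-Prusoff.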

A further series deals with T2, human GRP receptor (BB2) (Homo sapiens, UniProt P30550).
T2 construct: expressed in transfected cells; membranes prepared from the cells
T2 sequence (P30550 whole entry): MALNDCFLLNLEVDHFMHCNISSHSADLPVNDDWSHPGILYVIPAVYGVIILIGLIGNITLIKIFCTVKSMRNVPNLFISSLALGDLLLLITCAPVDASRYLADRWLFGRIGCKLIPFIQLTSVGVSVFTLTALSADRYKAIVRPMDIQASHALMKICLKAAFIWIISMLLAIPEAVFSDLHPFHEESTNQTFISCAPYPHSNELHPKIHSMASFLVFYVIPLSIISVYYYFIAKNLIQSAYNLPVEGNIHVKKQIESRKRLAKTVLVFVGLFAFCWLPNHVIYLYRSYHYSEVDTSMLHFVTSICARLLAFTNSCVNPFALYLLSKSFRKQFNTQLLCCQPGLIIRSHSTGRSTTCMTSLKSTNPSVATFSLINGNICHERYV
Put plainly: BB2 binding assay ([125I][Tyr4]bombesin displacement, CHO-K1 membranes). The following applies: Table 1, human GRP receptor binding affinity; Ki from IC50 by Cheng-Prusoff; read-out: GRP Kj. In short, it runs like this: as §1

The test system of series [1] is sexual behaviour of sexually dysfunctional male rats. The series is described as follows: Sexual behaviour of fluoxetine-induced sexually dysfunctional male rats. The series is classed as in vivo, rat. The method, then: Sprague Dawley male rats (Charles River, UK) were kept, 4 rats per cage, in a reversed lighting regime (12:12 hours, lights off at 5.00 h), with free access to food and water. The rats were pre-selected by being presented with a receptive female at 4 days intervals, i.e. every third day (having 2 clear days between presentations) until completing 6-7 trials of baseline determination. The animals showing consistently vigorous behaviour (ejaculatory latencies <300s) were chosen for further experiments. Animals were treated for 3 consecutive days with either vehicle (water) or fluoxetine (20 mg/kg, i.p., in a 2 ml/kg dosing volume). On the fourth day, the animals treated with water received vehicle (veh+veh) and the animals treated with fluoxetine received one of the three following treatments: Compound (1) (15 mg/kg, dissolved in 50% 2-hydroxypropyl-β-cyclodextrin in saline), vehicle (cyclodextrine), or yohimbine (2 mg/kg dissolved in water). All treatments were administered i.p. in a 1 ml/kg volume, 1 h before tests.
(§2) For all the sexual behaviour tests, the males were placed in an observation arena (50-60 cm diameter), starting 5 hours into the dark cycle and observed under red illumination. Three to 4 minutes after placing the male in the arena, a receptive female (ovariectomised, bearing a 7 mm Silastic implant of oestradiol benzoate) was introduced to the arena and the following parameters noted: Mount Latency: time (in seconds) taken between introduction of female and first mount. A maximum time of 15 minutes (900 seconds) was allowed, and the test terminated if no mounts were recorded within that time (FIG. 16), Ejaculation Latency: time (in seconds) taken from first intromission to ejaculation. A maximum time of 30 minutes (1800 seconds) was given, and the test terminated if ejaculation was not achieved in that time (FIG. 17), Percentage of males achieving ejaculation within 30 minutes was calculated (FIG. 18).
A one-way ANOVA followed by Dunnett's t test was used to compare the fluoxetine+vehicle group and other groups for mount and ejaculatory latencies. Percentage of animals ejaculating was analysed using a Chi-square test followed by Fisher's test. (*: P<0.05, **: P<0.01, ***: P<0.001; n=15-19).

The test system of series [2] is sexual behaviour of normal male rats. The series is described as follows: Sexual behaviour of normal (sexually vigorous) male rats. It is filed as in vivo, rat. Particulars: Compound (1) 15 mg/kg or Fluoxetine 20 mg/kg i.p. 1 h before test. The method, then: The potentially stimulatory effect of Compound (1) on male sexual behaviour has been tested on sexually vigorous rats. Sprague Dawley male rats (Charles River, UK) were kept, 4 rats per cage, in a reversed lighting regime (12:12 hours, lights off at 5.00 h), with free access to food and water. The rats were pre-selected by being presented with a receptive female at 4 days intervals, i.e. every third day (having 2 clear days between presentations) until completing 6-7 […] of baseline determination. The animals showing consistently vigorous behaviour (ejaculatory latencies <300s) were chosen for further experiments (n—24). Animals were randomised into three groups. All animals received all three treatments following a latin-square design. Treatments were administered once a week, with a baseline test in between treatments (4 days intervals between baseline and test day). Treatments were Compound (1) (15 mg/kg, dissolved in 50% 2-hydroxypropyl-β-cyclodextrin in saline), vehicle, or Fluoxetine (20 mg/kg dissolved in 100% DMSO). All treatments were administered i.p. in a 1 ml/kg volume, 1 h before tests.
as §2, with “11), Intromission Latency: time (in seconds) taken between introduction of female and first intromission (FIG. 12), Number of Mounts: to reach ejaculation. When ejaculation was not reached, the number of mounts was not analyzed, Number of Intromissions: to reach ejaculation. When ejaculation was not reached, the number of intromissions was not analyzed (FIG. 13 is number of mounts+intromissions),” for “16),”, “14), and Refractory Period: time (in seconds) taken from ejaculation to the first mount” for “17), Percentage”, “the next series of sexual activity. In those animals reaching” for “males achieving”, “the test” for “within 30 minutes”, “terminated at the end of the refractory period, as indicated by the first mount of the next sexual cycle” for “calculated”, “15).” for “18).”
A one-way ANOVA followed by Dunnett's t test was used to compare treated vs vehicle groups each day of testing, for all the sexual behaviour parameters. (*P<0.05, **P<0.01; n=15-16).

Where [3] appears, read: fluoxetine 20 mg/kg i.p. for 3 consecutive days, vs vehicle+vehicle group.

T1 sequence (P28336 whole entry): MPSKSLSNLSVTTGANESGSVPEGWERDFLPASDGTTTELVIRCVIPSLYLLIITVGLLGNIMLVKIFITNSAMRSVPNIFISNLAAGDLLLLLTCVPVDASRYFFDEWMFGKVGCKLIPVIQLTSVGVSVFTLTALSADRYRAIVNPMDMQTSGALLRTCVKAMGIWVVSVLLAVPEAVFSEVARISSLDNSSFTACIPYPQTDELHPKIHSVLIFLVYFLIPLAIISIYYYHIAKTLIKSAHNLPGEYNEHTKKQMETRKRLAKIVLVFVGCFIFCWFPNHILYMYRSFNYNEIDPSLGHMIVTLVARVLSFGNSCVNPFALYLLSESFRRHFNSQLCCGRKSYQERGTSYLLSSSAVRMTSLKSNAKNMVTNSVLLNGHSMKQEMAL

For `C[C@@](Cc1c[nH]c2ccccc12)(Nc1nc(-c2ccc([N+](=O)[O-])cc2)co1)C(=O)NCC(=O)c1ccccc1` [Example 11, (S)-3-(1H-Indol-3-yl)-2-methyl-2-[4-(4-nitro-phenyl)-oxazol-2-ylamino]-N-(2-oxo-2-phenyl-ethyl)-propionamide], the melting point lay within 80 to 90 °C. Besides, the Ki on human NMB receptor (BB1) came out at 5580 nM.

`Cc1cccc(N[C@@](C)(Cc2c[nH]c3ccccc23)C(=O)NCC2(c3ccccn3)CCCCC2)c1` [Example 22, (S)-3-(1H-Indol-3-yl)-2-methyl-N-(1-pyridin-2-yl-cyclohexylmethyl)-2-m-tolylamino-propionamide] gave a melting point of 70 to 75 °C. In addition, on human NMB receptor (BB1), the Ki was found to be 653 nM.

The compound `C[C@@](Cc1c[nH]c2ccccc12)(Nc1cncc2ccccc12)C(=O)NCC1(c2ccccn2)CCCCC1` [Example 19, (S)-3-(1H-Indol-3-yl)-2-(isoquinolin-4-ylamino)-2-methyl-N-(1-pyridin-2-yl-cyclohexylmethyl)-propionamide] returned a melting point of 98 to 101 °C. Besides, at human NMB receptor (BB1), the Ki came out at 1250 nM.

Consider `COc1ccc(C2(CNC(=O)[C@](C)(Cc3c[nH]c4ccccc34)Nc3nc(-c4ccc(C#N)cc4)co3)CCCCC2)nc1` [Example 13, (S)-2-[4-(4-Cyano-phenyl)-oxazol-2-ylamino]-3-(1H-indol-3-yl)-N-[1-(5-methoxy-pyridin-2-yl)-cyclohexylmethyl]-2-methyl-propionamide], for which the melting point is 105 to 108 °C. Also, the Ki at human GRP receptor (BB2) was 1380 nM. Also, on human NMB receptor (BB1), the Ki is 19 nM.

`C[C@@](Cc1c[nH]c2ccccc12)(NCc1ccc([N+](=O)[O-])cc1)C(=O)NCC1(c2ccccn2)CCCCC1` [Example 27, (S)-3-(1H-Indol-3-yl)-2-methyl-2-(4-nitro-benzylamino)-N-(1-pyridin-2-yl-cyclohexylmethyl)-propionamide] displayed a melting point of 58 to 60 °C. Besides, on human NMB receptor (BB1), the Ki was 652 nM.

Take `COC(=O)[C@@H]1[C@H]2C[C@H]3c4[nH]c5ccccc5c4CCN3C[C@@H]2CC[C@@H]1O` [Yohimbine, yohimbine]: the “Mount Latency” value in series [1] (fluoxetine-pretreated rats, Compound (1) 15 mg/kg or yohimbine 2 mg/kg i.p. 1 h before test, vs fluoxetine+vehicle (FIG. 16)) was “followed a similar trend, although this did not reach significance”. Also, the “Ejaculation Latency” value in series [1] (fluoxetine-pretreated rats, Compound (1) 15 mg/kg or yohimbine 2 mg/kg i.p. 1 h before test, vs fluoxetine+vehicle (FIG. 17)) is given as “followed a similar trend, although this did not reach significance”. In addition, the “percentage of animals ejaculating” value in series [1] (fluoxetine-pretreated rats, Compound (1) 15 mg/kg or yohimbine 2 mg/kg i.p. 1 h before test, vs fluoxetine+vehicle (FIG. 18)) is “followed a similar trend, although this did not reach significance”.

As to `C[C@@](Cc1c[nH]c2ccccc12)(Nc1nc2ccccc2o1)C(=O)NCC1(c2ccccn2)CCCCC1` [Example 17, (S)-2-(Benzooxazol-2-ylamino)-3-(1H-indol-3-yl)-2-methyl-N-(1-pyridin-2-yl-cyclohexylmethyl)-propionamide], the melting point lay in the range of 198 to 200 °C. The Ki at human NMB receptor (BB1) is 2080 nM.

The compound `O=C(NCC1(c2ccccn2)CCCCC1)[C@@H](Cc1ccccc1)Nc1ccccc1` [Example 24, (R)-3-Phenyl-2-phenylamino-N-[1 1-pyridin-2-yl-cyclohexylmethyl)-propionamide] showed a melting point of 113 to 115 °C. Further, the Ki at human NMB receptor (BB1) amounted to 137 nM.

In the case of `CNCCC(Oc1ccc(C(F)(F)F)cc1)c1ccccc1` (stereo not shown) [Fluoxetine, reference compound], in series [1] (setting [3]), the “Ejaculation Latency” value is on record as “significantly increased”, the “Mount Latency” value is “significantly increased” and the “number of animals ejaculating” value was “significantly lower”. In series [2] (vs vehicle (FIG. 11)), the “Mount Latency” value is on record as “significantly increased”. In series [2] (vs vehicle (FIG. 12)), the “Intromission Latency” value is recorded as “significantly increased”. For the same compound, in series [2] (vs vehicle (FIG. 13)), the “number of mounts and intromissions required to achieve ejaculation” value was “No changes”. Further, the “Ejaculation Latency” value in series [2] (vs vehicle (FIG. 14)) is “also increased”. The “Refractory Period” value in series [2] (vs vehicle (FIG. 15)) is given as “also increased”.

In the case of `CCc1coc(N[C@@](C)(Cc2c[nH]c3ccccc23)C(=O)NCC2(c3ccc(OC)cn3)CCCCC2)n1` [Example 15, (S)-2-(4-Ethyl-oxazol-2-ylamino)-3-(1H-indol-3-yl)-N-[1-(5-methoxy-pyridin-2-yl)-cyclohexylmethyl]-2-methyl-propionamide], the melting point fell in the range of 60 to 65 °C. In addition, on human GRP receptor (BB2), the Ki is 1770 nM. Moreover, the Ki at human NMB receptor (BB1) came to 213 nM.

In turn, `COCC1(CNC(=O)[C@](C)(Cc2c[nH]c3ccccc23)Nc2nc(-c3ccc([N+](=O)[O-])cc3)co2)CCCCC1` [Example 10, (S)-3-(1H-Indol-3-yl)-N-(1-methoxymethyl-cyclohexylmethyl)-2-methyl-2-[4-(4-nitro-phenyl)-oxazol-2-ylamino]-propionamide] registered a melting point of 189 to 192 °C. At human NMB receptor (BB1), the Ki is 469 nM.

Regarding `COc1ccc(C2(CNC(=O)[C@](C)(Cc3c[nH]c4ccccc34)Nc3nc(-c4ccccc4)co3)CCCCC2)nc1` [Example 14, (S)-3-(1H-Indol-3-yl)-N-[1-(5-methoxy-pyridin-2-yl)-cyclohexylmethyl]-2-methyl-2-(4-phenyl-oxazol-2-ylamino)-propionamide], the melting point was in the range of 85 to 90 °C. For the same compound, on human GRP receptor (BB2), the Ki was 1190 nM. The Ki on human NMB receptor (BB1) was 106 nM.
